In patent US6921667B2, “Methods for direct detection of individual methotrexate metabolites” (Prometheus Laboratories, Inc., priority 2003, dated 2005):

Experiment: Red blood cell methotrexate polyglutamate concentrations in patients on low-dose methotrexate, by HPLC fluorometry with post-column photo-oxidation
Assay type: in vivo, human
Conditions: single patient on 17.5 mg weekly methotrexate for at least 3 months; FIG. 4A; packed red blood cells
Experimental: The liquid chromatograph was an Agilent 1100 HPLC chemstation system composed of a quaternary pump, a system controller, an autoinjector, a sample cooler kept at 4° C., and a fluorometer. […] Methotrexate polyglutamates were detected with post-column derivatization using a photochemical reactor unit (Aura Industries; New York, N.Y.) equipped with an elongated 254 nm low pressure mercury ultraviolet lamp and containing a 1/16″ outer diameter TEFLON™ tubing (internal diameter 0.25 mm) assembled as a knitted coil and connected on-line between the analytical column and fluorometer. The knitted coil was extended lengthwise through the photochemical reactor unit; all but a portion of the elongated lamp was masked with foil such that only a segment of the knitted coil was irradiated. In particular, the lamp was masked such that only 1 meter of the coil was irradiated with the lamp, which at a flow rate of 1 ml/min corresponded to 3 seconds irradiation. Methotrexate polyglutamate photolytic products were measured at an excitation wavelength of 274 nm and an emission wavelength of 464 nm, unless otherwise indicated. The retention times described herein were measured from time of injection to time of detection at the post-reactor unit fluorometer. […]
Methotrexate polyglutamate photolytic products were analyzed at an excitation wavelength of 274 nm and an emission wavelength of 464 nm. […]

concentration in red blood cell sample: 27 nM
SMILES: CN(Cc1cnc2nc(N)nc(N)c2n1)c1ccc(C(=O)N[C@@H](CCC(=O)O)C(=O)O)cc1 [MTXPG1, 4-amino-10-methylpteroylglutamic acid]
